The values that follow come from patent publication US20100292255A1, “Therapeutic Compounds and Their Use in Treating Diseases and Disorders” (Myriad Pharmaceuticals, Inc., priority 2007, published 2010).

Where only a bound is given, the exact number is not on record here.

The test system of the first experiment is T1, purified human Hsp90.
T1 construct: purified human Hsp90 (Stressgen, SPP-770)
As to the kind of experiment: Hsp90 binding assay: displacement of BODIPY-labeled geldanamycin measured by fluorescence polarization. The settings on record: 5 μM compound; BODIPY-GM 10 nM, Hsp90 30 nM, overnight at room temperature. The gist of the method:
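Fluorescence polarization measured displacement of BODIPY-geldanamycin (10 nM) from purified human Hsp90 (30 nM). The buffer was HEPES-KOH pH 7.3 with molybdate, NP-40, gamma globulin and DTT, 2% DMSO, overnight at room temperature, ex/em 485/530 nm. % inhibition was calculated against DMSO controls, and points confounded by compound fluorescence were excluded.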
A general note: Fluorescence polarisation rises when a labelled molecule tumbles more slowly, as on binding a larger partner.
With `C[C@H](O)C(=O)N1CCC(CCn2cnc(N)c3nc(Sc4cc5c(cc4Br)CCC5)nc2-3)CC1` [compound 109, (S)-1-(4-{2-[6-Amino-8-(6-bromo-indan-5-ylsulfanyl)-purin-3-yl]-ethyl}-piperidin-1-yl)-2-hydroxy-propan-1-one], the “GM displacement from purified Hsp90 measured by FP Inhibition by 5 μM compd. (%)” value is listed as 58.0%.
On the same count and under the same terms, the figure for `CCc1ccc(Br)c(Sc2nc3c(N)ncn(CCC4CCN(C(=O)[C@H](C)O)CC4)c-3n2)c1` [compound 112, (2S)-1-[4-(2-{6-Amino-8-[(2-bromo-5-ethylphenyl)thio]-3H-purin-3-yl}ethyl)piperidin-1-yl]-1-oxopropan-2-ol] is 13.0%.
In the case of `C[C@H](NC(=O)OC(C)(C)C)C(=O)N1CCCC(Cn2cnc(N)c3nc(Sc4nc5cccc(Cl)c5s4)nc2-3)C1` (stereo partly drawn) [compound 116, tert-Butyl {(1S)-2-[3-({6-amino-8-[(7-chloro-1,3-benzothiazol-2-yl)thio]-3H-purin-3-yl}methyl)piperidin-1-yl]-1-methyl-2-oxoethyl}carbamate], the “GM displacement from purified Hsp90 measured by FP Inhibition by 5 μM compd. (%)” value is 15.0%.
As to `COc1cc(OC)c(Cl)c(Sc2nc3c(N)ncn(CC4CCCN(C(=O)[C@H](C)NC(=O)OC(C)(C)C)C4)c-3n2)c1` (stereo partly drawn) [compound 118, tert-Butyl {(1S)-2[3-({6-amino-8-[(2-chloro-3,5-dimethoxyphenyl)thio]-3H-purin-3-yl}methyl)piperidin-1-yl]-1-methyl-2-oxoethyl}carbamate], the “GM displacement from purified Hsp90 measured by FP Inhibition by 5 μM compd. (%)” value came to 12.0%.
Turning to `N#Cc1cc2c(cc1Sc1nc3c(N)ncn(CCC4CCN(C(=O)[C@@H](N)C(F)(F)F)CC4)c-3n1)OCO2` [compound 134, 6-[(6-amino-3-{2-[1-(3,3,3-trifluoroalanyl)piperidin-4-yl]ethyl}-3H-purin-8-yl)thio]-1,3-benzodioxole-5-carbonitrile], the “GM displacement from purified Hsp90 measured by FP Inhibition by 5 μM compd. (%)” value is 9.0%.
As for `CN(C)C(CCn1cnc(N)c2nc(Sc3cc4c(cc3Br)OCCO4)nc1-2)C1CC1` (centres unmarked) [compound 143, 8-[(7-bromo-2,3-dihydro-1,4-benzodioxin-6-yl)thio]-3-[3-cyclopropyl-3-(dimethylamino)propyl]-3H-purin-6-amine], the “GM displacement from purified Hsp90 measured by FP Inhibition by 5 μM compd. (%)” value is 27.0%.

Still in this experiment, the particulars now being: BODIPY-GM 10 nM, Hsp90 30 nM, overnight at room temperature; read-out: GM displacement from purified Hsp90 measured by FP IC 50.
For the compound `C[C@H](O)C(=O)N1CCC(CCn2c(Sc3cc4c(cc3Br)CCC4)nc3c(N)ncnc32)CC1` [compound 108, (S)-1-(4-{2-[6-Amino-8-(6-bromo-indan-5-ylsuIfanyl)-purin-9-yl]-ethyl}-piperidin-1-yl)-2-hydroxy-propan-1-one], the IC50 was determined as 160 nM.
Take `C[C@@H](O)C(=O)N1CCC(CCn2c(Sc3cc4c(cc3Br)OCCO4)nc3c(N)ncnc32)CC1` [compound 113, (2R)-1-[4-(2-{6-Amino-8-[(7-bromo-2,3-dihydro-1,4-benzodioxin-6-yl)thio]-9H-purin-9-yl}ethyl)piperidin-1-yl]-1-oxopropan-2-ol]: the IC50 is 72 nM.
On the same count and under the same terms, the figure for `C[C@@H](NC(=O)OC(C)(C)C)C(=O)N1CCC(Cn2c(Sc3cc4c(cc3Br)OCCO4)nc3c(N)ncnc32)CC1` [compound 120, tert-Butyl {(1R)-2-[4-({6-amino-8-[(7-bromo-2,3-dihydro-1,4-benzodioxin-6-yl)thio]-9H-purin-9-yl}methyl)piperidin-1-yl]-1-methyl-2-oxoethyl}carbamate] is 400 nM; for `COc1cc(OC)c(Cl)c(Sc2nc3c(N)ncnc3n2CC2CCCN(C(=O)[C@H](C)N)C2)c1` (stereo partly drawn) [compound 123, 9-({1-[(2S)-2-Aminopropanoyl]piperidin-3-yl}methyl)-8-[(2-chloro-3,5-dimethoxyphenyl)thio]-9H-purin-6-amine] it is 3800 nM; for `C[C@@H](N)C(=O)N1CCC(Cn2c(Sc3cc4c(cc3Br)OCCO4)nc3c(N)ncnc32)CC1` [compound 124, 9-([1-[(2R)-2-Aminopropanoyl]piperidin-4-yl}methyl)-8-[(7-bromo-2,3-dihydro-1,4-benzodioxin-6-yl)thio]-9H-purin-6-amine] it is 295 nM.
Regarding `C[C@H](N)C(=O)N1CCC(Cn2c(Sc3cc4c(cc3Br)OCCO4)nc3c(N)ncnc32)CC1` [compound 125, 9-({1-[(2S)-2-Aminopropanoyl]piperidin-4-yl}methyl)-8-[(7-bromo-2,3-dihydro-1,4-benzodioxin-6-yl)thio]-9H-purin-6-amine], the IC50 is 500 nM.
In the case of `C[C@H](O)C(=O)N[C@H](C)C(=O)N1CCC(Cn2c(Sc3cc4c(cc3Br)OCCO4)nc3c(N)ncnc32)CC1` [compound 126, (2S)-N-{(1R)-2-[4-({6-Amino-8-[(7-bromo-2,3-dihydro-1,4-benzodioxin-6-yl)thio]-9H-purin-9-yl}methyl)piperidin-1-yl]-1-methyl-2-oxoethyl}-2-hydroxypropanamide], the IC50 is > 5000 nM.
On the same count and under the same terms, to `C[C@@H](NC(=O)[C@@H](C)OC(=O)C(C)(C)C)C(=O)N1CCC(Cn2c(Sc3cc4c(cc3Br)OCCO4)nc3c(N)ncnc32)CC1` [compound 127, (1R)-2-({(1R)-2-[4-({6-amino-8-[(7-bromo-2,3-dihydro-1,4-benzodioxin-6-yl)thio]-9H-purin-9-yl}methyl)piperidin-1-yl]-1-methyl-2-oxoethyl}amino)-1-methyl-2-oxoethyl pivalate] belongs > 5000 nM.
On to `C[C@@H](NC(=O)C(C)(C)C)C(=O)N1CCC(Cn2c(Sc3cc4c(cc3Br)OCCO4)nc3c(N)ncnc32)CC1` [compound 128, N-{(1R)-2-[4-({6-amino-8-[(7-bromo-2,3-dihydro-1,4-benzodioxin-6-yl)thio]-9H-purin-9-yl}methyl)piperidin-1-yl]-1-methyl-2-oxoethyl}-2,2-dimethylpropanamide], for which the IC50 was 440 nM.
Regarding `C[C@@H](NC(=O)CC(C)(C)C)C(=O)N1CCC(Cn2c(Sc3cc4c(cc3Br)OCCO4)nc3c(N)ncnc32)CC1` [compound 129, N-{(1R)-2-[4-({6-Amino-8-[(7-bromo-2,3-dihydro-1,4-benzodioxin-6-yl)thio]-9H-purin-9-yl}methyl)piperidin-1-yl]-1-methyl-2-oxoethyl}-3,3-dimethylbutanamide], the IC50 turned out to be 3000 nM.
As for `C[C@H](O)C(=O)N[C@@H](C)C(=O)N1CCC(Cn2c(Sc3cc4c(cc3Br)OCCO4)nc3c(N)ncnc32)CC1` [compound 130, (2S)—N-{(1S)-2-[4-({6-Amino-8-[(7-bromo-2,3-dihydro-1,4-benzodioxin-6-yl)thio]-9H-purin-9-yl}methyl)piperidin-1-yl]-1-methyl-2-oxoethyl}-2-hydroxypropanamide], the IC50 is 1100 nM.
Turning to `C[C@H](NC(=O)CO)C(=O)N1CCC(Cn2c(Sc3cc4c(cc3Br)OCCO4)nc3c(N)ncnc32)CC1` [compound 131, N-{(1S)-2-[4-({6-Amino-8-[(7-bromo-2,3-dihydro-1,4-benzodioxin-6-yl)thio]-9H-purin-9-yl}methyl)piperidin-1-yl]-1-methyl-2-oxoethyl}-2-hydroxyacetamide], the IC50 was determined as 1900 nM.
Regarding `N#Cc1cc2c(cc1Sc1nc3c(N)ncnc3n1CCC1CCN(C(=O)[C@@H](N)C(F)(F)F)CC1)OCO2` [compound 133, 6-[(6-Amino-9-{2-[1-(3,3,3-trifluoroalanyl)piperidin-4-yl]ethyl}-9H-purin-8-yl)thio]-1,3-benzodioxole-5-carbonitrile], the IC50 was determined as 505 nM.
On to `N#Cc1cc2c(cc1Sc1nc3c(N)ncnc3n1CCC1CCN(C(=O)[C@@H]3CC(F)(F)CN3)CC1)OCO2` [compound 135, 6-[(6-Amino-9-{2-[1-(4,4-difluoro-L-prolyl)piperidin-4-yl]ethyl}-9H-purin-8-yl)thio]-1,3-benzodioxole-5-carbonitrile], for which the IC50 is 900 nM.
As for `C[C@@H](N)C(=O)N1CCCC(CCCn2c(Sc3cc4c(cc3Br)OCO4)nc3c(N)ncnc32)C1` (stereo partly drawn) [compound 136, 9-(3-{1-[(2R)-2-Aminopropanoyl]piperidin-3-yl}propyl)-8-[(6-bromo-1,3-benzodioxol-5-yl)thio]-9H-purin-6-amine], the IC50 stood at 110 nM.
Turning to `CC(=O)NC(CCn1c(Sc2cc3c(cc2Br)OCO3)nc2c(N)ncnc21)C1CC1` (centres unmarked) [compound 137, N-{3-[6-Amino-8-(6-bromo-benzo[1,3]dioxol-5-ylsulfanyl)-purin-9-yl]-1-cyclopropyl-propyl}-acetamide], the IC50 is 240 nM.
On the same count and under the same terms, to `CC(=O)NC(CCn1c(Sc2cc3c(cc2Br)OCCO3)nc2c(N)ncnc21)C1CC1` (centres unmarked) [compound 139, N-(3-{6-Amino-8-[(7-bromo-2,3-dihydro-1,4-benzodioxin-6-yl)thio]-9H-purin-9-yl}-1-cyclopropylpropyl)acetamide] belongs 240 nM; to `CC(=O)N1CCC(CCn2c(Sc3cc4c(cc3Br)OCCO4)nc3c(N)ncnc32)CC1` [compound 140, 9-[2-(1-Acetylpiperidin-4-yl)ethyl]-8-[(7-bromo-2,3-dihydro-1,4-benzodioxin-6-yl)thio]-9H-purin-6-amine], 45 nM.
For `Nc1ncnc2c1nc(Sc1cc3c(cc1Br)OCO3)n2CCC(NC(=O)CO)C1CC1` (centres unmarked) [compound 141, N-(3-{6-Amino-8-[(6-bromo-1,3-benzodioxol-5-yl)thio]-9H-purin-9-yl}-1-cyclopropylpropyl)-2-hydroxyacetamide], the IC50 amounted to 170 nM.
Take `CN(C)C(CCn1c(Sc2cc3c(cc2Br)OCCO3)nc2c(N)ncnc21)C1CC1` (centres unmarked) [compound 142, 8-[(7-Bromo-2,3-dihydro-1,4-benzodioxin-6-yl)thio]-9-[3-cyclopropyl-3-(dimethylamino)propyl]-9H-purin-6-amine]: the IC50 turned out to be 205 nM.
